These results are taken from patent US12097222B2, “Methods for attenuating viral infection and for treating lung injury” (Spiritus Therapeutics, Inc., priority 2019, dated 2024).

For data set [1], the system named is MSC migration. To be noted: cited from earlier work.
In data set [2] the test system is BLM-induced lung injury in 22-month old male C57BL/6 mice. Kind of data set: BLM-induced pulmonary fibrosis in aged mice, ASCs given on day 12. To be noted: n = 4-5/group. Format: in vivo, mouse.
For data set [3], the system named is AR mRNA. Kind of data set: AR mRNA expression in lungs of BLM-treated male mice.
For data set [4], the system named is MERS-CoV. To be noted: vs untreated animals; cited from earlier work.
Data set [5] deals with MERS-CoV. The conditions noted are these: in vitro; cited from earlier work.
The subject of data set [6] is ER. The experiment in a line: ERE luciferase reporter (ER transcriptional activation) in hASCs.
Data set [7] deals with T1, CXCR4 (Mus musculus, UniProt P70658).
T1 construct: host or cells: BM-MSCs (endogenous receptor)
To be noted: cited from earlier work.

The test system of data set [8] is myofibroblasts from mouse lungs 21 day post BLM. Kind of data set: Double transfection of myofibroblasts with miR-29a mimic and miR-199-3p inhibitor. The conditions noted are these: mouse isolates (data not shown). Format: cell-based.
Data set [9] relates to myofibroblasts isolated from lungs of patients with IPF. The data set is described as above. Format: cell-based, human.
Data set [10] has as its system MERS-CoV. To be noted: in vitro; cited from earlier work. This is another data set of the same source.
Where [11] appears, read: lung tissue, day 21, ASCs on day 12 post-BLM.
The mark [12] stands for this setting: double transfection miR-29a mimic + miR-199-3p inhibitor, 48 hours post-transfection.

Marks after values point to notes of the source that are not given here.

T1 sequence (P70658 whole entry): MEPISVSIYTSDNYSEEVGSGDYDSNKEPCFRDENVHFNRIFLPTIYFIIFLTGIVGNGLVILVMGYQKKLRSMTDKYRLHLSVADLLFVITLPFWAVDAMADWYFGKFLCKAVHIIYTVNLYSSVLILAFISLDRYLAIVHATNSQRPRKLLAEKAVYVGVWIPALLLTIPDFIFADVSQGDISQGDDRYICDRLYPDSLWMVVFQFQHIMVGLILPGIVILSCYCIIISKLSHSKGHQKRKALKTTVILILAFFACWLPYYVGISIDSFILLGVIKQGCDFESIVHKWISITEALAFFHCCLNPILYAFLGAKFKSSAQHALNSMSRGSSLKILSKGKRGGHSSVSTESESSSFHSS

Consider `COc1cccc(-c2cc(=O)c3ccccc3o2)c1N` [PD98059], for which the “effect on IGF-1-induced increase in MSC migration in response to SDF-1” value in data set [1] was “not”.

Consider bleomycin sulfate [BLM], for which the “Interval weight change at day 7 (mean ± SEM)” value in data set [2] (day 7 after intratracheal BLM 2.0 U/kg (before ASC administration on day 12)) is recorded as −14.2 ± 1.7%^a. In [2] (day 21 sacrifice, BLM 2.0 U/kg, ASCs 5×10^5 by tail vein on day 12), the “Overall weight change at day 21 (mean ± SEM)” value is −27.3 ± 3.7%^aa. In [2] (setting [11]), the “Collagen type 1α1 mRNA/18s” value came out at 213 ± 63, the “TNF-α mRNA/18S” value was 0.80 ± 0.180^a and the “αvintegrin mRNA/18S” value is given as 1.09 ± 0.14^a. In data set [3] (BLM-treated male mice), the “increase of AR mRNA in lungs” value is recorded as “six-fold increase”. Also, the “R mRNA expression/18s” value in data set [3] (lungs of BLM-treated male mice (n = 15) vs saline (n = 16), p < 0.05) is on record as 2.0 ± 0.5.

In the case of `COc1c(C)c2c(c(O)c1C/C=C(\C)CCC(=O)O)C(=O)OC2` [MPA, Mycophenolic acid], the “disease outcome and viral loads” value in data set [4] was “developed severe and/or fatal disease with higher mean viral loads”. Also, the “inhibition activity against MERS-CoV” value in [5] is on record as “strong inhibition activity”.

With `C[C@]12CC[C@@H]3c4ccc(O)cc4C[C@@H](CCCCCCCCC[S+]([O-])CCCC(F)(F)C(F)(F)F)[C@H]3[C@@H]1CC[C@@H]2O` (stereo partly shown) [ICI 182,780, fulvestrant], the “block of E2-induced ER transcriptional activation” value in data set [6] (hASCs, with E2 1 or 10 nM) is on record as “able to block activation by E2”.

For TN14003, the “inhibition of SDF-1 promoted chemotactic migration of BM-MSCs” value in data set [7] is reported as “completely inhibited”.

As for `C[C@]12CC[C@@H]3c4ccc(O)cc4CC[C@H]3[C@@H]1CC[C@@H]2O` [E2, 17β-estradiol], the “ER transcriptional activation (luciferase/B-gal)” value in data set [6] (hASCs from post-menopausal women) is “less than a two-fold change”; in data set [6] (hASCs from pre-menopausal women, E2 10 nM) it was “greater than sixfold”; in data set [6] (hASCs from pre-menopausal women, E2 0.1 and 1 nm), “greater than five-fold”.

Consider “miR-29a mimic: plasmid containing miR-29a mimic AACCGATTTCAGATGGTGCT (SEQ ID NO: 1), Exiqon (described as plasmid-borne mimic, chemistry not given here)”, for which, in [8], the MMP-2 activity entry is reported as “decreased MMP-2 activity”. In addition, the “Upregulation of miR-29a (RT-PCR)” value in [9] (co-transfection with miR-199-3p inhibitor) is on record as over 5000 fold. Also, the “MMP-2 activity (zymography)” value in [9] (setting [12]) is on record as “decreased MMP-2 activity”.

With `Cc1cccc(C)c1OCC(=O)N[C@@H](Cc1ccccc1)[C@@H](O)C[C@H](Cc1ccccc1)NC(=O)[C@H](C(C)C)N1CCCNC1=O` [lopinavir], the “50% effective cytotoxic concentration (EC50) against MERS-CoV” value in data set [10] is “suboptimal”.

For “miR-199-3p inhibitor: plasmid containing miR-199-3p inhibitor AACCAATGTGCAGACTACTG (SEQ ID NO: 2), Exiqon (described as plasmid-borne inhibitor, chemistry not given here)”, in data set [8], the CAV-1 expression result is “increased CAV-1 expression”. Moreover, the “downregulation of miR-199-3p expression (RT-PCR)” value in data set [9] (co-transfection with miR-29a mimic) is recorded as “at least 100 fold”. For the same compound, in data set [9] (setting [12]), the “CAV-1 expression (western)” value is “increased CAV-1 expression”.
